Measured values taken from paper PMC2799336 (Journal of the American Chemical Society, 2009).

How the values were obtained:
[1] = molecular target: T1, E. coli lipoic acid ligase (LplA) (Escherichia coli, UniProt P32099); experiment: HPLC kinetics of LplA-catalyzed lipoylation; type: biochemical
LplA [2] = conditions: 1:10, 1:100, 1:1000 mixtures of E2p:LAP1; 300 nM LplA, 30 minutes; PCR analysis
[3] = molecular target: T1, E. coli lipoic acid ligase (LplA); conditions: azide 7 ligation; cited from earlier work
LplA [4] = conditions: cited from earlier work
LplA [5] = test system: LplA
LplA [6] = conditions: LAP2 fused to the C- rather than N-terminus of HP1; 50 nM LplA, 1 hour, 30 °C; HPLC
biotin ligase (BirA) = conditions: 12 hour reaction with 5 μM BirA; HPLC; data not shown
HeLa mammalian cells = experiment: Surface expression of LAP-CFP-TM fusions in mammalian cells; conditions: CFP fluorescence

T1 sequence (P32099 whole entry): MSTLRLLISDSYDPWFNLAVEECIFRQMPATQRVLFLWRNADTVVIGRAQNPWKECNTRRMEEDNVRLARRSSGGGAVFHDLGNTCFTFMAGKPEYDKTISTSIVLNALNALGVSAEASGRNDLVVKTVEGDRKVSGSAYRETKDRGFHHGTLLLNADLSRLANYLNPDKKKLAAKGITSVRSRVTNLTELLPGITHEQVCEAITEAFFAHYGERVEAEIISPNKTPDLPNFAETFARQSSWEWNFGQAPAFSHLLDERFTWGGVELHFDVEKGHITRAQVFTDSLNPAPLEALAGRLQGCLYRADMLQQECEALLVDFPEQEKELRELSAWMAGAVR

Row | Sequence | Km ([1]; read-out: Km (estimated), LAP1, estimated, measured by HPLC, data not shown) | yeast remaining after one round of selection (LplA [2]) | kcat [3] | ligation of lipoic acid, alkyl azide, aryl azide (LplA [4]; LAP1 fusion proteins) | labeling at the cell surface (LplA [4]; LAP1 fusions) | ligation of bromoalkanoic acid and coumarin (LplA [4]; LAP1 fusions) | kcat/Km fold worse than natural lipoate and biotin acceptor proteins ([1]; LAP2 versus natural acceptor proteins) | kcat/Km fold better than LAP1 ([1]; LAP2 versus previous rationally-designed 22-amino acid LAP1) | kcat/Km ([1]; lipoylation of synthetic LAP2 peptide, 50 nM LplA, 750 μM lipoic acid, 2 mM ATP, 5 mM magnesium acetate in DPBS, 30 °C, LAP2 5.5-352 μM, HPLC, Michaelis-Menten) | cell surface lipoylation compared with E2p (LplA [5]; CFP-TM fusions in HEK cells, average signal ratios, Figure S5B) | cell surface lipoylation of fusion proteins (LplA [5]; even at low expression levels) | conversion to lipoylated product, C-terminal HP1 fusion (LplA [6]) | biotinylation by BirA (biotin ligase (BirA)) | recognition by LplA by position in fusion (LplA [4]; LAP2) | labeling in the cytosol / inside living cells (LplA [4]) | cell surface expression (HeLa mammalian cells)
1 | DEVLVEIETDKAVLEVPGGEEE [LAP1] | > 200 µM | could not be detected | 0.048 ± 0.001 s⁻¹ | in vitro and in cell lysate, but not on the cell surface except under conditions of high LAP1-POI over-expression | difficult to label at the cell surface | could not be ligated to LAP1 fusions in any context | – | – | – | – | – | – | – | – | – | –
2 | GFEIDKVWYDLDA [LAP2] | – | – | – | – | – | – | 8 fold | > 70 fold | 16500 M⁻¹ s⁻¹ | comparable even to E2p | could easily lipoylate cell surface LAP2 fusion proteins, even at low expression levels | decreased somewhat, but was still higher than all other LAP sequences at the N-terminus | no biotinylation | can be recognized by LplA at the N-terminus, C-terminus, and internally | allows fluorophore tagging of intracellular proteins | clear cell surface expression
